Values quoted from earlier work, collected in patent US20200237920A1, “STABLE INJECTABLE PHARMACEUTICAL COMPOSITION OF NEUROKININ 1 RECEPTOR ANTAGONIST AND PROCESS FOR PREPARATION THEREOF” (PHARMATHEN S.A., priority 2012, published 2020).

Tests used:
[1] = test system: serotonin, dopamine or corticosteroid receptors

SMILES | affinity for serotonin, dopamine or corticosteroid receptors (in words) [1] | solubility in water (in words)
C[C@@H](O[C@H]1OCCN(Cc2n[nH]c(=O)[nH]2)[C@H]1c1ccc(F)cc1)c1cc(C(F)(F)F)cc(C(F)(F)F)c1 [Aprepitant] | little or no affinity | 
CNC[C@H](O)[C@@H](O)[C@H](O)[C@H](O)CO.CNC[C@H](O)[C@@H](O)[C@H](O)[C@H](O)CO.C[C@@H](O[C@H]1OCCN(Cc2nn(P(=O)(O)O)c(=O)[nH]2)[C@H]1c1ccc(F)cc1)c1cc(C(F)(F)F)cc(C(F)(F)F)c1 [Fosaprepitant Dimeglumine] |  | freely soluble in water
